{
  "source": "patent US6914045B2",
  "about": "“Glycopeptide antibiotics” (Wyeth Holdings Corporation, priority 2001, dated 2005)",
  "assay_in_all_cases": "in vitro antibacterial evaluation, MIC by broth dilution",
  "type_in_all_cases": "cell-based",
  "key": {"Staphylococcus sp.": {"test_system": "Staphylococcus sp.", "conditions": "broth dilution, 18 hours at 35° C.", "how_it_was_run": "(§1)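 Inoculum 5×10^5 CFU/mL; concentrations 64 to 0.06 μg/mL; MIC defined as lowest inhibitory level. Conducted by broth dilution under NCCLS guidelines.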"}, "Enterococcus sp.": {"test_system": "Enterococcus sp.", "conditions": "broth dilution, 18 hours at 35° C.", "how_it_was_run": "as §1"}, "Escherichia coli": {"test_system": "Escherichia coli", "conditions": "18 hours at 35° C.", "how_it_was_run": "as §1"}, "Streptococcus sp.": {"test_system": "Streptococcus sp.", "conditions": "broth dilution, 18 hours at 35° C.", "how_it_was_run": "as §1"}},
  "data": [
    {"smiles": "CC(C)=CCCC(C)C1OCC2OC(OC3C(CO)OC(Oc4ccc(CC5NC(=O)C(C(C)c6ccccc6)NC(=O)CNC(=O)C(CO)NC(=O)C(C(O)C6CNC(=N)N6C6OC(CO)C(O)C(O)C6O)NC(=O)C(C(O)C6CNC(=N)N6)NC5=O)cc4)C(O)C3O)C(O)C(O)C2O1", "note": "(stereo not shown) [Example 125]", "values": [
      {"measurement": "MIC Staphylococcus aureus (ATCC 29213)", "setting": "Staphylococcus sp.", "result": 32, "unit": "µg/mL"},
      {"measurement": "MIC Staphylococcus aureus (GC 1131)", "setting": "Staphylococcus sp.", "result": 32, "unit": "µg/mL"},
      {"measurement": "MIC Staphylococcus aureus (GC 3051)", "setting": "Staphylococcus sp.", "result": 32, "unit": "µg/mL"},
      {"measurement": "MIC Staphylococcus aureus (GC 3053)", "setting": "Staphylococcus sp.", "result": 32, "unit": "µg/mL"},
      {"measurement": "MIC Staphylococcus aureus (GC 4541)", "setting": "Staphylococcus sp.", "result": 8, "unit": "µg/mL"},
      {"measurement": "MIC Staphylococcus aureus (GC 4542)", "setting": "Staphylococcus sp.", "result": 32, "unit": "µg/mL"},
      {"measurement": "MIC Staphylococcus aureus (GC 4544)", "setting": "Staphylococcus sp.", "result": 32, "unit": "µg/mL"},
      {"measurement": "MIC Staphylococcus aureus (GC 4545)", "setting": "Staphylococcus sp.", "result": 32, "unit": "µg/mL"},
      {"measurement": "MIC Staphylococcus aureus (GC 1131)", "setting": "Staphylococcus sp.; inoculum 5×10^5 CFU/mL, strain GC 1131", "result": 32, "unit": "µg/mL"},
      {"measurement": "MIC Staphylococcus aureus (ATCC 29213)", "setting": "Staphylococcus sp.; strain ATCC 29213", "result": 32, "unit": "µg/mL"},
      {"measurement": "MIC Staphylococcus aureus (GC 3051)", "setting": "Staphylococcus sp.; strain GC 3051", "result": 32, "unit": "µg/mL"},
      {"measurement": "MIC Staphylococcus aureus (GC 3053)", "setting": "Staphylococcus sp.; strain GC 3053", "result": 32, "unit": "µg/mL"},
      {"measurement": "MIC Staphylococcus aureus (GC 4541)", "setting": "Staphylococcus sp.; strain GC 4541", "result": 8, "unit": "µg/mL"},
      {"measurement": "MIC Staphylococcus aureus (GC 4542)", "setting": "Staphylococcus sp.; strain GC 4542", "result": 32, "unit": "µg/mL"},
      {"measurement": "MIC Staphylococcus aureus-SMITH (GC 4543)", "setting": "Staphylococcus sp.; strain GC 4543", "result": 32, "unit": "µg/mL"},
      {"measurement": "MIC Staphylococcus aureus (GC 4544)", "setting": "Staphylococcus sp.; strain GC 4544", "result": 32, "unit": "µg/mL"},
      {"measurement": "MIC Staphylococcus aureus (GC 4545)", "setting": "Staphylococcus sp.; strain GC 4545", "result": 32, "unit": "µg/mL"},
      {"measurement": "MIC Staphylococcus haemolyticus (GC 4546)", "setting": "Staphylococcus sp.; strain GC 4546", "result": 32, "unit": "µg/mL"},
      {"measurement": "MIC Coagulase Negative Staphylococcus (GC 4547)", "setting": "Staphylococcus sp.; strain GC 4547", "result": 32, "unit": "µg/mL"},
      {"measurement": "MIC Coagulase Negative Staphylococcus (GC 4548)", "setting": "Staphylococcus sp.; strain GC 4548", "result": 32, "unit": "µg/mL"},
      {"measurement": "MIC Coagulase Negative Staphylococcus (GC 4549)", "setting": "Staphylococcus sp.; strain GC 4549", "result": 32, "unit": "µg/mL"},
      {"measurement": "MIC Coagulase Negative Staphylococcus (GC 4551)", "setting": "Staphylococcus sp.; strain GC 4551", "result": 32, "unit": "µg/mL"},
      {"measurement": "MIC Coagulase Negative Staphylococcus (GC 6257)", "setting": "Staphylococcus sp.; strain GC 6257", "result": 32, "unit": "µg/mL"},
      {"measurement": "MIC Staphylococcus aureus-SMITH (GC 4543)", "setting": "Staphylococcus sp.; strain SMITH GC 4543", "result": 32, "unit": "µg/mL"},
      {"measurement": "MIC Enterococcus avium (GC 4558)", "setting": "Enterococcus sp.; Enterococcus avium (GC 4558)", "result": 32, "unit": "µg/mL"},
      {"measurement": "MIC Enterococcus faecalis (ATCC 29212)", "setting": "Enterococcus sp.; Enterococcus faecalis (ATCC 29212)", "result": 32, "unit": "µg/mL"},
      {"measurement": "MIC Enterococcus faecalis (GC 2242)", "setting": "Enterococcus sp.; Enterococcus faecalis (GC 2242)", "result": 32, "unit": "µg/mL"},
      {"measurement": "MIC Enterococcus faecalis (GC 2691)", "setting": "Enterococcus sp.; Enterococcus faecalis (GC 2691)", "result": 32, "unit": "µg/mL"},
      {"measurement": "MIC Enterococcus faecalis (GC 3059)", "setting": "Enterococcus sp.; Enterococcus faecalis (GC 3059)", "result": 32, "unit": "µg/mL"},
      {"measurement": "MIC Enterococcus faecalis (GC 4552)", "setting": "Enterococcus sp.; Enterococcus faecalis (GC 4552)", "result": 32, "unit": "µg/mL"},
      {"measurement": "MIC Enterococcus faecalis (GC 4553)", "setting": "Enterococcus sp.; Enterococcus faecalis (GC 4553)", "result": 32, "unit": "µg/mL"},
      {"measurement": "MIC Enterococcus faecalis (GC 4554)", "setting": "Enterococcus sp.; Enterococcus faecalis (GC 4554)", "result": 32, "unit": "µg/mL"},
      {"measurement": "MIC Enterococcus faecalis (GC 6189)", "setting": "Enterococcus sp.; Enterococcus faecalis (GC 6189)", "result": 32, "unit": "µg/mL"},
      {"measurement": "MIC Enterococcus faecium (GC 2243)", "setting": "Enterococcus sp.; Enterococcus faecium (GC 2243)", "result": 32, "unit": "µg/mL"},
      {"measurement": "MIC Enterococcus faecium (GC 4556)", "setting": "Enterococcus sp.; Enterococcus faecium (GC 4556)", "result": 32, "unit": "µg/mL"},
      {"measurement": "MIC Enterococcus faecium (GC 4557)", "setting": "Enterococcus sp.; Enterococcus faecium (GC 4557)", "result": 16, "unit": "µg/mL"},
      {"measurement": "MIC Enterococcus faecalis (ATCC 29212)", "setting": "Enterococcus sp.; strain ATCC 29212", "result": 32, "unit": "µg/mL"},
      {"measurement": "MIC Enterococcus faecalis (GC 2242)", "setting": "Enterococcus sp.; strain GC 2242", "result": 32, "unit": "µg/mL"},
      {"measurement": "MIC Enterococcus faecium (GC 2243)", "setting": "Enterococcus sp.; strain GC 2243", "result": 32, "unit": "µg/mL"},
      {"measurement": "MIC Enterococcus faecalis (GC 2691)", "setting": "Enterococcus sp.; strain GC 2691", "result": 32, "unit": "µg/mL"},
      {"measurement": "MIC Enterococcus faecalis (GC 3059)", "setting": "Enterococcus sp.; strain GC 3059", "result": 32, "unit": "µg/mL"},
      {"measurement": "MIC Enterococcus faecalis (GC 4552)", "setting": "Enterococcus sp.; strain GC 4552", "result": 32, "unit": "µg/mL"},
      {"measurement": "MIC Enterococcus faecalis (GC 4553)", "setting": "Enterococcus sp.; strain GC 4553", "result": 32, "unit": "µg/mL"},
      {"measurement": "MIC Enterococcus faecalis (GC 4554)", "setting": "Enterococcus sp.; strain GC 4554", "result": 32, "unit": "µg/mL"},
      {"measurement": "MIC Enterococcus faecium (GC 4556)", "setting": "Enterococcus sp.; strain GC 4556", "result": 32, "unit": "µg/mL"},
      {"measurement": "MIC Enterococcus faecium (GC 4557)", "setting": "Enterococcus sp.; strain GC 4557", "result": 16, "unit": "µg/mL"},
      {"measurement": "MIC Enterococcus avium (GC 4558)", "setting": "Enterococcus sp.; strain GC 4558", "result": 32, "unit": "µg/mL"},
      {"measurement": "MIC Enterococcus faecalis (GC 6189)", "setting": "Enterococcus sp.; strain GC 6189", "result": 32, "unit": "µg/mL"},
      {"measurement": "MIC Escherichia coli (ATCC 25922)", "setting": "Escherichia coli; strain ATCC 25922", "result": ">64", "unit": "µg/mL"},
      {"measurement": "MIC Escherichia coli (GC 4559)", "setting": "Escherichia coli; strain GC 4559", "result": ">64", "unit": "µg/mL"},
      {"measurement": "MIC Escherichia coli (GC 4560)", "setting": "Escherichia coli; strain GC 4560", "result": 32, "unit": "µg/mL"},
      {"measurement": "MIC Streptococcus agalactiae (GC 4564)", "setting": "Streptococcus sp.; Streptococcus agalactiae (GC 4564)", "result": 1, "unit": "µg/mL"},
      {"measurement": "MIC Streptococcus pneumoniae (ATCC 6301)", "setting": "Streptococcus sp.; Streptococcus pneumoniae (ATCC 6301)", "result": 0.25, "unit": "µg/mL"},
      {"measurement": "MIC Streptococcus pneumoniae (GC 1894)", "setting": "Streptococcus sp.; Streptococcus pneumoniae (GC 1894)", "result": 0.12, "unit": "µg/mL"},
      {"measurement": "MIC Streptococcus pneumoniae (GC 4565)", "setting": "Streptococcus sp.; Streptococcus pneumoniae (GC 4565)", "result": 0.25, "unit": "µg/mL"},
      {"measurement": "MIC Streptococcus pyogenes (GC 4563)", "setting": "Streptococcus sp.; Streptococcus pyogenes (GC 4563)", "result": 0.5, "unit": "µg/mL"},
      {"measurement": "MIC Streptococcus pneumoniae (ATCC 6301)", "setting": "Streptococcus sp.; strain ATCC 6301", "result": 0.25, "unit": "µg/mL"},
      {"measurement": "MIC Streptococcus pneumoniae (GC 1894)", "setting": "Streptococcus sp.; strain GC 1894", "result": 0.12, "unit": "µg/mL"},
      {"measurement": "MIC Streptococcus pyogenes (GC 4563)", "setting": "Streptococcus sp.; strain GC 4563", "result": 0.5, "unit": "µg/mL"},
      {"measurement": "MIC Streptococcus agalactiae (GC 4564)", "setting": "Streptococcus sp.; strain GC 4564", "result": 1, "unit": "µg/mL"},
      {"measurement": "MIC Streptococcus pneumoniae (GC 4565)", "setting": "Streptococcus sp.; strain GC 4565", "result": 0.25, "unit": "µg/mL"}
    ]}
  ]
}
